Measurements reported in patent US9969723B2, “3-(4-(benzyloxy)phenyl)hex-4-ynoic acid derivative, method of preparing same and pharmaceutical composition for preventing and treating metabolic disease including same as effective ingredient” (HYUNDAI PHARM CO., LTD, priority 2014, dated 2018).

How the values were obtained:
[1] = system: Male Goto-Kakizaki (GK) rats, the type II diabetes animal model (not obesity); assay: Oral glucose tolerance test (OGTT) 2; type: in vivo, rat
Description: (§1) Male Goto-Kakizaki (GK) rats at 22˜23 weeks, the type II diabetes animal model (not obesity), were adapted at least for 7 days. Only healthy animals were selected thereafter, followed by OGTT. After fasting for 16˜18 hours, 5 rats per group were randomly selected and orally administered with the compounds prepared in Examples 5, 9, 14, 28, 37, and 47 at the dose of 0.3˜10 mg/kg. At this time, 5% polyethyleneglycol (PEG) was orally administered at the same dose to the non-treated group rats. 60 minutes after the sample administration, glucose (4 g/kg) was orally administered thereto at the dose of 5 ml/kg. Then, blood glucose was measured by using Accu-chek active strip (Roche diagnostic Co.). The time for the measurement was set at 60 minutes before the glucose administration (−60), 0 minute, 20 minutes, 40 minutes, 60 minutes, and 120 minutes after the glucose administration, and blood glucose was measured through tail vein puncture.

[2] = system: Male OLETF (Otsuka Long-Evans Tokushima fatty) rats, the type II diabetes animal model (obesity); assay: Oral glucose tolerance test (OGTT) 3; type: in vivo, rat
Description: as §1, with “OLETF (Otsuka Long-Evans Tokushima fatty)” for “Goto-Kakizaki (GK)”, “29˜30” for “22˜23”, “(obesity),” for “(not obesity),”, “1˜10” for “0.3˜10”

GPR40 = GPR40 (Homo sapiens (Human), UniProt O14842); assay: Calcium flux GPCR agonist assay (Millipore GPCR profiler, FLIPR TETRA)
Sequence of GPR40 (O14842 whole entry): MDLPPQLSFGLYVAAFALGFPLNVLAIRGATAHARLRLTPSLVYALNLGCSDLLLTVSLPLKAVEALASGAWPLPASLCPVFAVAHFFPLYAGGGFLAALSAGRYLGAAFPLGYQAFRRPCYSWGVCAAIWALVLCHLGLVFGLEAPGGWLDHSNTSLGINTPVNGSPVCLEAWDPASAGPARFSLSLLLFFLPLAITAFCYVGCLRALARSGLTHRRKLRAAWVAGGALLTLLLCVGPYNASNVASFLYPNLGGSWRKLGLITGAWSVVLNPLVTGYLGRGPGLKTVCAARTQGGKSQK
Description: The compounds of Examples of the invention dissolved in DMSO (dimethyl sulfoxide), PBS (phosphate buffered saline), and DW (distilled water), etc, were diluted three-times with EMD Millipore's GPCR profiler assay buffer. […] Each well was filled with EMD Millipore's GPCR profiler assay buffer. The said EMD Millipore's GPCR profiler assay buffer was HBSS (Hanks Balanced Salt Solution) containing 20 mM HEPES (4-(2-hydroxyethyl)-1-piperazineethanesulfonic acid) and 2.5 mM Probenecid (4-(dipropylsulfamoyl)benzoic acid), whose pH was regulated as 7.4.
The compounds of Examples were duplicated at each concentration. […] Agonist assay was performed by using FLIPR^TETRA. Fluorescence and luminescence baseline were measured. […] To measure the activity of those compounds of Examples, GPCR activity assay was performed for 180 seconds.
When the assay data were not satisfactory, an additional experiment was performed.
All the concentration dependent graphs were made by using GraphPad Prism. The graph was modified by Sigmoidal dose response.

CYP2D6 = CYP2D6 (Homo sapiens (Human), UniProt P10635); assay: CYP inhibition (Invitrogen Vivid kit); type: in vitro ADME; conditions: CYP2D6 P450 BACULOSOMES reagent (Invitrogen kit P2862), probe Vivid CYP450 substrate, read-out: CYP inhibition (%) 2D6
Sequence of CYP2D6 (P10635 whole entry): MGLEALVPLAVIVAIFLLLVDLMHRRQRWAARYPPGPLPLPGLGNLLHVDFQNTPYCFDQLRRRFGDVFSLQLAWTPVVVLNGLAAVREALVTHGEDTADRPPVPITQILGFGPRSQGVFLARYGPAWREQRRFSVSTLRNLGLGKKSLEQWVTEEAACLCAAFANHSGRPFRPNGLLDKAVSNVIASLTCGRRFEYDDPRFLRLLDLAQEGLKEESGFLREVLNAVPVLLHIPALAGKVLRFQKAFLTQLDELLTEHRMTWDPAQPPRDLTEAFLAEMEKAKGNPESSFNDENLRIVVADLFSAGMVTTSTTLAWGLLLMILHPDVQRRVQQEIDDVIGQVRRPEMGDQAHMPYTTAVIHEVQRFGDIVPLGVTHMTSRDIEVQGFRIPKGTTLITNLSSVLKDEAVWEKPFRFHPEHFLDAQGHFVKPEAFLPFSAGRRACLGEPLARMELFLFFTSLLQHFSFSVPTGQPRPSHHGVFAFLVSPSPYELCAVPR
Description: (§2) CYP is the enzyme involved in drug metabolism. So, the inhibition of this enzyme can change the prediction of dose of a drug and toxicity caused by the co-treatment with other drugs. Therefore, the inventors measured the inhibitory effect of the compounds of Examples of the invention on endogenous CYP3A4, CYP2C9, CYP1A2, CYP2D6, and CYP2C19. At this time, Invitrogen (P2862) was used as the CYP2D6 inhibition kit, and BD GENTEST (459100, 459300, 459400, 459500) was used as the CYP1A2, CYP2C9, CYP2C19, and CYP3A4 inhibition kit. To prepare the Invitrogen kit, the test sample was diluted in distilled water at 2.5× of the final experimental concentration.
P450 BACULOSOMES® reagent and reproducer (100×) included in Invitrogen kit were diluted in Vivid® CYP450 reaction buffer (2×) at the concentration that matched the target CYP450. The prepared 2.5× sample (80 μL) and the diluted P450 BACULOSOMES® reagent mixture (100 μL) were mixed in each well of U-bottom 96-well plate, followed by pre-culture for 20 minutes. Vivid® CYP450 substrate and NADP+ (100×) were diluted in Vivid® CYP450 reaction buffer (2×) at the concentration that matched the target CYP450 and the substrate. Upon completion of the pre-culture, substrate-NADP (nicotinamide adenine dinucleotide phosphate) mixed solution (20 μL) was added thereto, followed by reaction for 1 hour. Upon completion of the reaction, the reactant was transferred onto the white plate, and then fluorescence was measured with a microplate reader (CYP 2D6 excitation wavelength: 400 nm, absorption wavelength: 502 nm). […]

CYP3A4 = CYP3A4 (Homo sapiens (Human), UniProt P08684); assay: CYP inhibition (BD GENTEST kit); type: in vitro ADME; conditions: CYP3A4 enzyme of the BD GENTEST CYP3A4 inhibition kit, pH 7.4, read-out: CYP inhibition (%) 3A4
Sequence of CYP3A4 (P08684 whole entry): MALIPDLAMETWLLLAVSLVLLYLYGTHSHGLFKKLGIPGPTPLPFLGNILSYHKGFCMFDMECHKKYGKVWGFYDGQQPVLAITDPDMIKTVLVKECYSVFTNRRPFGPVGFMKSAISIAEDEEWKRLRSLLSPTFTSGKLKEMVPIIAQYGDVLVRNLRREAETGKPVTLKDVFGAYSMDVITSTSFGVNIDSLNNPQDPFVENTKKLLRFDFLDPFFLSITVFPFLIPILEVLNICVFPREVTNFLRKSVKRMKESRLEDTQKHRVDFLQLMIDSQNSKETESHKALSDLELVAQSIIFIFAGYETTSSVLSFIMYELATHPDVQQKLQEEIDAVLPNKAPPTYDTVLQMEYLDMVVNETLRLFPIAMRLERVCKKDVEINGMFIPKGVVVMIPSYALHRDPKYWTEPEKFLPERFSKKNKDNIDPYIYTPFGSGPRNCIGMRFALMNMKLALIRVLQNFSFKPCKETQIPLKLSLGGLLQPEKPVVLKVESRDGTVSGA
Description: as §2
(§3) The test sample for BD GENTEST kit was diluted in acetonitrile at 50× of the final experimental concentration. NADPH-coenzyme mixture was prepared by diluting the coenzyme, G6PDH, and regulatory protein included in the kit with distilled water at the concentration instructed by the kit. The prepared 50× sample (4 μL) and the NADPH-coenzyme mixture (96 μL) were mixed in each well of U-bottom 96-well plate, followed by pre-culture for 10 minutes in a 37° C. incubator. Enzyme/substrate mixed solution was prepared by diluting the buffer (0.5 M potassium phosphate, pH 7.4), each CYP450 enzyme/substrate mixed solution included in the kit with distilled water at the instructed concentration. Upon completion of the pre-culture, 100 μL of the enzyme/substrate mixed solution was added in each well of the plate, followed by culture in a 37° C. incubator for 15 minutes (CYP 1A2), 30 minutes (CYP 3A4 and CYP 2C19) or 1 and half hours (CYP 2C9). Upon completion of the reaction, the reactant was transferred onto the white plate, and then fluorescence was measured with a microplate reader (CYP 1A2 and CYP 2C19 excitation wavelength: 410 nm, absorption wavelength: 460 nm; CYP 2C9 and CYP 3A4 excitation wavelength: 409 nm, absorption wavelength: 530 nm). The values obtained above were converted into % as the inhibition rate of the sample by the value of the non-treated group.

CYP2C9 = CYP2C9 (Homo sapiens (Human), UniProt P11712); assay: CYP inhibition (BD GENTEST kit); type: in vitro ADME; conditions: CYP2C9 enzyme of the BD GENTEST CYP2C9 inhibition kit, pH 7.4, read-out: CYP inhibition (%) 2C9
Sequence of CYP2C9 (P11712 whole entry): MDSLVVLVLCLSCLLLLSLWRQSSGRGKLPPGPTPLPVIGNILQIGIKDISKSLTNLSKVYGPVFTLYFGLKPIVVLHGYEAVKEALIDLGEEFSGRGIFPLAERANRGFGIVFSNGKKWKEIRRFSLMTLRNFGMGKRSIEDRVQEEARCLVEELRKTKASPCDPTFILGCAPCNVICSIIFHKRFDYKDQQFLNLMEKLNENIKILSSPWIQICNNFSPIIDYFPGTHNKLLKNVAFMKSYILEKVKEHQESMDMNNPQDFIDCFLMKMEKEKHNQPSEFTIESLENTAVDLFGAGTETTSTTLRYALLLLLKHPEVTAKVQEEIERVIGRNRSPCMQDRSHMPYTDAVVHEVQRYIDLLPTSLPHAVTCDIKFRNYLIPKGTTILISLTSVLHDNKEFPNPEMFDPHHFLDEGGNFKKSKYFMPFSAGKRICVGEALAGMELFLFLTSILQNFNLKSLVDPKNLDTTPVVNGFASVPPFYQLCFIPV
Description: as §2, with “At this time, Invitrogen (P2862) was used as the CYP2D6 inhibition kit, and BD GENTEST (459100, 459300, 459400, 459500) was used as the CYP1A2, CYP2C9, CYP2C19, and CYP3A4 inhibition kit.” left out
as §3, with “Upon completion of the reaction, the reactant was transferred onto the white plate, and then fluorescence was measured with a microplate reader (CYP 1A2 and CYP 2C19 excitation wavelength: 410 nm, absorption wavelength: 460 nm; CYP 2C9 and CYP 3A4 excitation wavelength: 409 nm, absorption wavelength: 530 nm).” left out

CYP2C19 = CYP2C19 (Homo sapiens (Human), UniProt P33261); assay: CYP inhibition (BD GENTEST kit); type: in vitro ADME; conditions: CYP2C19 enzyme of the BD GENTEST CYP2C19 inhibition kit, pH 7.4, read-out: CYP inhibition (%) 2C19
Sequence of CYP2C19 (P33261 whole entry): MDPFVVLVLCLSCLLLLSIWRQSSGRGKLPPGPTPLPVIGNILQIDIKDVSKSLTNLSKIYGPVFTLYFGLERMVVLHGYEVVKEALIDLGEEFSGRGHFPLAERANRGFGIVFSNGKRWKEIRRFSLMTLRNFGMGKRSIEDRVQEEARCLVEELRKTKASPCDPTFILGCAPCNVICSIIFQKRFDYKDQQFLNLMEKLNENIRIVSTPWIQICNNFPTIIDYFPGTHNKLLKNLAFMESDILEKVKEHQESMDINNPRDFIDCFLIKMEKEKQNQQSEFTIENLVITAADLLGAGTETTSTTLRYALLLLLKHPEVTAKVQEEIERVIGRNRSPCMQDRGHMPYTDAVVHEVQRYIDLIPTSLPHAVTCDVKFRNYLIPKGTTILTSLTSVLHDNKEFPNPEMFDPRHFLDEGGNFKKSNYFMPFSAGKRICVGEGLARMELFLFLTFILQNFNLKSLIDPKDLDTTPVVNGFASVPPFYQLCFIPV
Description: as §2, with “At this time, Invitrogen (P2862) was used as the CYP2D6 inhibition kit, and BD GENTEST (459100, 459300, 459400, 459500) was used as the CYP1A2, CYP2C9, CYP2C19, and CYP3A4 inhibition kit.” left out
as §3, with “Upon completion of the reaction, the reactant was transferred onto the white plate, and then fluorescence was measured with a microplate reader (CYP 1A2 and CYP 2C19 excitation wavelength: 410 nm, absorption wavelength: 460 nm; CYP 2C9 and CYP 3A4 excitation wavelength: 409 nm, absorption wavelength: 530 nm).” left out

[3] = oral dose 10 mg/kg, values in text

EC50 (GPR40): < 1 nM | inhibition at 1 h, 10 µM (CYP2D6): 13.9% | inhibition at 30 min, 10 µM (CYP3A4): 15.5% | inhibition at 1.5 h, 10 µM (CYP2C9): 47.1% | inhibition at 30 min, 10 µM (CYP2C19): 3.7%
Compound: CC#C[C@@H](CC(=O)O)c1ccc(OCc2cccc(C3=CCC4(CC3)OCCO4)c2)cc1 [Example 9, L-lysine (3S)-3-(4-(3-(1,4-dioxaspiro[4,5]dec-7-en-8-yl)benzyloxy)phenyl)hex-4-ynoate]
% AUC ([1]; oral dose 0.3 mg/kg): C (under 25.0%) | % AUC ([1]; oral dose 1 mg/kg): C (under 25.0%) | % AUC ([1]; oral dose 3 mg/kg): A (over 35.0%) | % AUC ([1]; oral dose 10 mg/kg): A (over 35.0%) | hypoglycemic effect by that of the non-treated group [1, 3]: more than 35.0% | % AUC ([2]; oral dose 1 mg/kg): B (25.0-35.0%) | % AUC ([2]; oral dose 3 mg/kg): A (over 35.0%) | % AUC ([2]; oral dose 10 mg/kg): A (over 35.0%) | hypoglycemic effect compared with the non-treated group [2, 3]: more than 35.0%
